{"source": "patent US20090131431A1", "about": "“Pyrazolo[3,4-b]pyridine compounds, and their use as a PDE4 inhibitors” (priority 2005, published 2009)", "origin": "cited, not measured here", "key": {"[1]": {"tested_on": "COPD patients", "conditions": "human, in vivo; cited from earlier work"}, "[2]": {"tested_on": "humans with histories of allergic rhinitis", "conditions": "orally 500 ug once daily for 9 days; intranasal allergen provocation (pollen extracts); cited from earlier work"}, "[3]": {"tested_on": "atopic dermatitis patients", "conditions": "0.15% cream; vs vehicle and hydrocortisone 17-butyrate (0.1%) cream; cited from earlier work"}}, "data": [{"compound": "O=C(Nc1c(Cl)cncc1Cl)c1ccc(OC(F)F)c(OCC2CC2)c1", "note": "[roflumilast]", "values": [{"measurement": "FEV1 in COPD patients", "setting": "[1]", "result": "appears to show small improvements in FEV1"}, {"measurement": "rhinal airflow during the treatment period (compared to placebo)", "setting": "[2]", "result": "effective in improving rhinal airflow"}]}, {"compound": "Nc1nc2c([nH]1)c(=O)n(CC1CC1)c(=O)n2CC1CC1", "note": "[cipamfylline]", "values": [{"measurement": "effectiveness in the treatment of atopic dermatitis patients", "setting": "[3]", "result": "significantly more effective than vehicle, but significantly less effective than hydrocortisone 17-butyrate (0.1%) cream"}]}]}
